From ChEMBL document CHEMBL5291721, “A preclinical secondary pharmacology resource illuminates target-adverse drug reaction associations of marketed drugs” (Nat Commun, 2023)

Columns and labels:
[1] = target: T1, Histamine H1 receptor (Homo sapiens, UniProt P35367); type: functional, cell-based
[2] = target: T1, Histamine H1 receptor; type: functional, cell-based; remark: listed apart in the source
[3] = target: T2, Muscarinic acetylcholine receptor M1 (Homo sapiens, UniProt P11229)
T2 sequence (P11229 whole entry): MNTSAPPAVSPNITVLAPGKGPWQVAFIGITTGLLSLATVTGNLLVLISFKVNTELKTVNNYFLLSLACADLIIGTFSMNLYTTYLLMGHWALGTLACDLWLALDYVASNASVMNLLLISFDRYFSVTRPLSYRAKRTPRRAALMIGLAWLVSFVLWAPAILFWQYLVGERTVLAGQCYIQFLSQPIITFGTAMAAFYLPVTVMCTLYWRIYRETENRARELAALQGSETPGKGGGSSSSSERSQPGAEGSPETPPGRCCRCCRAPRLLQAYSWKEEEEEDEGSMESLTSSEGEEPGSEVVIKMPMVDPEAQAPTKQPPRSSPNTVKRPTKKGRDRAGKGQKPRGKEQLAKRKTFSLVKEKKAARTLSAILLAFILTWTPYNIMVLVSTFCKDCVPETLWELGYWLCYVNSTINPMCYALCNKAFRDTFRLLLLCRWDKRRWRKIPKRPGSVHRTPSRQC

[4] = target: T3, Type-1 angiotensin II receptor (Homo sapiens, UniProt P30556)
T3 sequence (P30556 whole entry): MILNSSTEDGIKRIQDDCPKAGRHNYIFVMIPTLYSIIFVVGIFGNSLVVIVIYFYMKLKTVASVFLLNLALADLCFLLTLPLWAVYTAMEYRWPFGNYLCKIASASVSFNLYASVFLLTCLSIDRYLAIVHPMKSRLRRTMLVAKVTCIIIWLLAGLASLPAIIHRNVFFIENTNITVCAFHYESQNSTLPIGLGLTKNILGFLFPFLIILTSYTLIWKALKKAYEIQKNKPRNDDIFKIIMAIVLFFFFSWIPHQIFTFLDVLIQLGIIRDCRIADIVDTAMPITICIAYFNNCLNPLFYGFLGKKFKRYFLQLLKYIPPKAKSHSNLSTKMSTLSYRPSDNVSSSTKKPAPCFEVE

[5] = target: T4, Alpha-2A adrenergic receptor (Homo sapiens, UniProt P08913)
T4 sequence (P08913 whole entry): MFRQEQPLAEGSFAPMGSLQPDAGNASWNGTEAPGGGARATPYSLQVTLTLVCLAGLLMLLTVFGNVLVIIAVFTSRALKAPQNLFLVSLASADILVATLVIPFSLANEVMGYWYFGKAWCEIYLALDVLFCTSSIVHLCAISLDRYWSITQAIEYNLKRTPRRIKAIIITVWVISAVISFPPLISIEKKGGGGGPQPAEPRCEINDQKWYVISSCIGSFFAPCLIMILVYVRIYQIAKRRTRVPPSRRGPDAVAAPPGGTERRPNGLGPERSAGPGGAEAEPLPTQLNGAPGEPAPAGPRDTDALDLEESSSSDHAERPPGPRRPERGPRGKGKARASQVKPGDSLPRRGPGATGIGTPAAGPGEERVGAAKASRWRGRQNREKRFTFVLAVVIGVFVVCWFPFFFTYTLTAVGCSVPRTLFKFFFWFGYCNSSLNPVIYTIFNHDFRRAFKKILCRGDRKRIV

[6] = target: D(1A) dopamine receptor (Homo sapiens, UniProt P21728)
Sequence of D(1A) dopamine receptor (P21728 whole entry): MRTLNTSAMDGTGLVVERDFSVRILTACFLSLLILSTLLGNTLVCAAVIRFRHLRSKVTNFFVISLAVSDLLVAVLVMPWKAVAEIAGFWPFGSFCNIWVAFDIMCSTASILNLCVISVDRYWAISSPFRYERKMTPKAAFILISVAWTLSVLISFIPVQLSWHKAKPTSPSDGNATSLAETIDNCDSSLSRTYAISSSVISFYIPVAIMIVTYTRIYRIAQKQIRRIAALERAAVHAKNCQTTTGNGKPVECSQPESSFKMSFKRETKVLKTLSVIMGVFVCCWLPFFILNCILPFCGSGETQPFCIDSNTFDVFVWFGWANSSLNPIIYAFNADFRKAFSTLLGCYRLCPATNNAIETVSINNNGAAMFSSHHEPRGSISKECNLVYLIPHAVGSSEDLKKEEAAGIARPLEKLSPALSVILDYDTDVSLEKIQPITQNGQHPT

[7] = target: 5-hydroxytryptamine receptor 2B (Homo sapiens, UniProt P41595)
Sequence of 5-hydroxytryptamine receptor 2B (P41595 whole entry): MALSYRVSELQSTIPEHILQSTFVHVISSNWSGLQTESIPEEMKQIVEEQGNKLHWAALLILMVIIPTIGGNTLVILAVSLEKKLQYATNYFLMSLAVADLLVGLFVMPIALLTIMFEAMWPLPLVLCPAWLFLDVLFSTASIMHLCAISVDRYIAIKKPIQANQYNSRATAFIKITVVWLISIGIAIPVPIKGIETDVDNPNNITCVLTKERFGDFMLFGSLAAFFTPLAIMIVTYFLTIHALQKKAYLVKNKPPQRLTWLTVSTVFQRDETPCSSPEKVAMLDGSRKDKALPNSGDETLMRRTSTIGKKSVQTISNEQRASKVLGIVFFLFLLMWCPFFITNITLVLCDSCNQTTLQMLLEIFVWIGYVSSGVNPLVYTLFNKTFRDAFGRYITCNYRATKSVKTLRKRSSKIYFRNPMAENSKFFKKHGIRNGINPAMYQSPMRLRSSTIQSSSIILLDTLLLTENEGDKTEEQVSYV

[8] = target: T5, Type-2 angiotensin II receptor (Homo sapiens, UniProt P50052); type: functional
T5 sequence (P50052 whole entry): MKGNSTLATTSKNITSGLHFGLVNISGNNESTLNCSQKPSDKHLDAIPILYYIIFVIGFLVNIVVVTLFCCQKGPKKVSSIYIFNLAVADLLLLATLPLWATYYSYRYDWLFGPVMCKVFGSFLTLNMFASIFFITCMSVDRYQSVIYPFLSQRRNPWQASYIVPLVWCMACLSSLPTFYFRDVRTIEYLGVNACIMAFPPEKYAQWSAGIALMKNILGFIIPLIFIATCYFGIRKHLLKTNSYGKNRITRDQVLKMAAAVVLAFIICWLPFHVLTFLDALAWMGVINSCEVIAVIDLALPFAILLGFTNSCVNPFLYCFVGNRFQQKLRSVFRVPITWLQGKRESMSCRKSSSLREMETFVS

[9] = target: T2, Muscarinic acetylcholine receptor M1; type: functional, cell-based
[10] = target: T6, Prostaglandin G/H synthase 1 (Rattus norvegicus, UniProt Q63921); type: functional
T6 sequence (Q63921 whole entry): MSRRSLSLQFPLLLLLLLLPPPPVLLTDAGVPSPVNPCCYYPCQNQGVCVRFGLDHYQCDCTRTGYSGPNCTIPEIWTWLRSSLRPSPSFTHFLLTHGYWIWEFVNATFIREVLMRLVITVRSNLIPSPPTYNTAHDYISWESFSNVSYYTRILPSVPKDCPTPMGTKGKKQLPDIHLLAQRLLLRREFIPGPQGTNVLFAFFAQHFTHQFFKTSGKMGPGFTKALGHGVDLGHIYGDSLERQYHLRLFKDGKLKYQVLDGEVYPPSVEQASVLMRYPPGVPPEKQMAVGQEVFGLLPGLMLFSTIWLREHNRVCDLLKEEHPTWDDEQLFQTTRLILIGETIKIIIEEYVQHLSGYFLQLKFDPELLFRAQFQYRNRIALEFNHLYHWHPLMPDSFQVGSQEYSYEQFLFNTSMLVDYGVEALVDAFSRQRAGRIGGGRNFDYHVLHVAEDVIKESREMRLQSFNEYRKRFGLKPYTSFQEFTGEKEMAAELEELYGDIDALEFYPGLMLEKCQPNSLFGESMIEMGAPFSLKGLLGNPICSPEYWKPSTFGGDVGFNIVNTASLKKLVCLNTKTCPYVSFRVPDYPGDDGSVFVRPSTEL

[11] = target: T2, Muscarinic acetylcholine receptor M1; type: functional, cell-based; remark: listed apart in the source
Also: assay procedure not described here.

T1 sequence (P35367 whole entry): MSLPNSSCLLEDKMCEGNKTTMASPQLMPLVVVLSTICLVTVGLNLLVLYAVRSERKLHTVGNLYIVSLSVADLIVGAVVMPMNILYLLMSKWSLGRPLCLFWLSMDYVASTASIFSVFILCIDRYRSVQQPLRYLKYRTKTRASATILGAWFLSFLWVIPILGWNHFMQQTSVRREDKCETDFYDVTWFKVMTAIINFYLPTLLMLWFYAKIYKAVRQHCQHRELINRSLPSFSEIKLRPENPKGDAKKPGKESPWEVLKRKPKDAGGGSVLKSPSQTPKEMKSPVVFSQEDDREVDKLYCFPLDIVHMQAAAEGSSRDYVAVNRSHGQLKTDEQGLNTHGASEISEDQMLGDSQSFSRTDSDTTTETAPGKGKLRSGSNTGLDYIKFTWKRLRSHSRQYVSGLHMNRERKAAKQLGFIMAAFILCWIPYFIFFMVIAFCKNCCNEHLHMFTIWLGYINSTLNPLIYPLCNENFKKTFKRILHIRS

**Q.** What does the source list for `Nc1nc(NC2CC2)c2ncn([C@H]3C=C[C@@H](CO)C3)c2n1` [ABACAVIR]?
**A.** AC50 [1]: > 30 µM; AC50 [2]: > 30 µM

**Q.** For `CCc1oc2ccccc2c1C(=O)c1cc(I)c(O)c(I)c1` [BENZIODARONE], which AC50 [3] is on record?
**A.** > 30 µM

**Q.** For `O=C(OCC(O)CO)c1ccccc1Nc1ccnc2cc(Cl)ccc12` (stereo not drawn) [GLAFENINE], which AC50 [4] is on record?
**A.** > 100 µM

**Q.** What about the AC50 [5] of the same compound?
**A.** > 30 µM

**Q.** What about the AC50 [6] of the same compound?
**A.** > 30 µM

**Q.** Which AC50 [7] does the source give for `CCCN1C[C@H](CSC)C[C@@H]2c3cccc4[nH]cc(c34)C[C@H]21` [PERGOLIDE] here?
**A.** 0.0084 µM

**Q.** For `C1CCC(C(CC2CCCCN2)C2CCCCC2)CC1` (stereo not drawn) [PERHEXILINE], which AC50 [8] is on record?
**A.** > 100 µM

**Q.** Which AC50 [5] does the source give for `Cc1cn([C@H]2C=C[C@@H](CO)O2)c(=O)[nH]c1=O` [STAVUDINE] here?
**A.** > 30 µM

**Q.** And the AC50 [6]?
**A.** > 30 µM

**Q.** How did the AC50 [9] turn out when `O=C(O[C@H]1C[C@H]2CC[C@@H](C1)[N+]21CCCC1)C(O)(c1ccccc1)c1ccccc1` [TROSPIUM] was run?
**A.** > 30 µM

**Q.** And the AC50 [10]?
**A.** > 30 µM

**Q.** And the AC50 [11]?
**A.** 0.0027 µM
